Results as given in US20050032124A1, “Identification of genotype-selective agents for treating Huntington's disease” (priority 2003, published 2005).
Values after ≈ are worked out from the molar mass of the structure shown. Like-named read-outs stand apart in the source and are kept apart here.

How the values were obtained:
Assay in all cases: Calcein AM viability assay, dilution-series retest
[1] = test system: BJ-TERT/LT/ST/RAS^V12 tumorigenic cells; assay type: cell-based, human; settings: for IC50: Homo sapiens, 48 h, read-out: IC50, BJ-TERT/LT/ST/Ras^V12; for Tumor Selectivity: IC50 in primary BJ cells divided by IC50 in BJ-TERT/LT/ST/RAS^V12 tumorigenic cells
Method: Described here is work carried out to identify compounds with increased potency or activity in the presence of hTERT, LT, ST, E6, E7 or RAS^V12. […] The primary screen tested (in quadruplicate) the effect of treating tumorigenic BJ-TERT/LT/ST/RAS^V12 engineered tumorigenic cells with each compound for 48 hours at a concentration of 4 μg/mL, corresponding to 10 μM for a compound with a molecular weight of 400, which is the approximate median molecular weight of the libraries. Cell viability was measured using the dye calcein acetoxymethyl ester (calcein AM) (Wang et al., 1993, Hum. Immunol. 3 7, 264-270), which is a non-fluorescent compound that freely diffuses into cells. In live cells, calcein AM is cleaved by intracellular esterases, forming the anionic fluorescent derivative calcein, which cannot diffuse out of live cells. […] The IC50 value (concentration required to inhibit 50% of the calcein AM signal) was calculated for each compound in each cell line (Table 1).
(§1) Calcein acetoxylmethyl ester (AM) is a cell membrane-permeable, non-fluorescent compound that is cleaved by intracellular esterases to form the anionic, cell-impermeable, fluorescent compound calcein. Viable cells are stained by calcein because of the presence of intracellular esterases and because the intact plasma membrane prevents fluorescent calcein from leaking out of cells (Wang et al., 1993, supra). Cells were seeded in 384-well plates using a Zymark Sciclone ALH, treated with each compound in triplicate at 4 μg/mL in the primary screen for two days, washed with phosphate-buffered saline on a Packard Minitrak with a 384-well washer and incubated for four hours with 0.7 μg/mL calcein (Molecular Probes). Total fluorescence intensity in each well was recorded on a Packard Fusion platereader, and converted to a percent inhibition of signal by subtracting the instrument background and dividing by the average signal obtained when cells were not treated with any compound.
(§2) Replica daughter plates were prepared with a Zymark Sciclone ALH and integrated Twister II by diluting stock plates 50 fold in medium lacking serum and pen/strep to obtain a compound concentration in daughter plates of 80 μg/ml with 2% DMSO. Assay plates were prepared by seeding cells in black, clear bottom 384-well plates in columns 1-23 (6000 cells/well in 57 μl) using a syringe bulk dispenser. Columns 3-22 were treated with compounds from a daughter library plate by transferring 3 μl from the daughter library plate using 384-position fixed cannula array. The final compound concentrations in assay plates were thus 4 μg/ml. The assay plates were incubated for 48 hours at 37° C. in humidified incubator containing 5% CO2. Plate processing for the calcein AM viability assay was performed using an integrated Minitrak/Sidetrak robotic system from Packard Bioscience (Perkin Elmer). Assay plates were washed with phosphate buffered saline, and 20 μl of calcein AM (0.7 μg/ml) per well was added. Plates were incubated at room temperature for 4 hours. Fluorescence intensity was determined using a Fusion platereader with filters centered on an excitation of 485 nm and an emission of 535 nm.
Compounds to be retested were purchased from manufacturers. Stocks were prepared in DMSO at a concentration of 1 mg/ml in 384-well polypropylene plates with a 16-point, two-fold dilution dose curve of each compound in a column, in duplicates. Column 1-2 and 23-24 were left empty for controls. Daughter retest plates were prepared from stock retest plate by diluting 66.6 fold in DMEM in 384-well deep-deep well plates (4.5 μl transfer into 300 μl). Cells were seeded at a density of 6000 per well in 40 μl, and 20 μl was added from a daughter retest plate. The plates were incubated for two days at 37° C. with 5% CO2.

[2] = test system: BJ-TERT/LT/RAS^V12/ST cells; assay type: cell-based, human; settings: Homo sapiens, 48 h, read-out: IC50, BJ-TERT/LT/Ras^V12/ST
From the text: (§3) Described here is work carried out to identify compounds with increased potency or activity in the presence of hTERT, LT, ST, E6, E7 or RAS^V12. Engineered cell lines with these genetic elements were used to screen […] compounds, including 20,000 compounds from a combinatorial library, 1,990 compounds from the National Cancer Institute diversity collection, and 1,540 biologically active known compounds that were selected and purchased by Applicant and formatted into a screenable collection. The primary screen tested (in quadruplicate) the effect of treating tumorigenic BJ-TERT/LT/ST/RAS^V12 engineered tumorigenic cells with each compound for 48 hours at a concentration of 4 μg/mL, corresponding to 10 μM for a compound with a molecular weight of 400, which is the approximate median molecular weight of the libraries. Cell viability was measured using the dye calcein acetoxymethyl ester (calcein AM) (Wang et al., 1993, Hum. Immunol. 3 7, 264-270), which is a non-fluorescent compound that freely diffuses into cells. In live cells, calcein AM is cleaved by intracellular esterases, forming the anionic fluorescent derivative calcein, which cannot diffuse out of live cells. […] The IC50 value (concentration required to inhibit 50% of the calcein AM signal) was calculated for each compound in each cell line (Table 1). […] Following is a more detailed analysis of these nine compounds.
as §1, §2
(§4) Compounds to be retested were purchased from manufacturers. Stocks were prepared in DMSO at a concentration of 1 mg/ml in 384-well polypropylene plates with a 16-point, two-fold dilution dose curve of each compound in a column, in duplicates. Column 1-2 and 23-24 were left empty for controls. […]

BJ primary cells = assay type: cell-based, human; settings: Homo sapiens, 48 h, read-out: concentration required to achieve 50% inhibition of calcein AM staining (IC50), BJ
From the text: as §3, §1, §2, §4

BJ-TERT/LT/ST cells = assay type: cell-based, human; settings: Homo sapiens, 48 h, read-out: IC50, BJ-TERT/LT/ST
From the text: as §3, §1, §2, §4

BJ-TERT/LT/RAS^V12 cells = assay type: cell-based; settings: Homo sapiens, 48 h, read-out: IC50, BJ-TERT/LT/Ras^V12
From the text: as §3, §1, §2, §4

BJ-TERT cells = assay type: cell-based; settings: Homo sapiens, 48 h, read-out: IC50, BJ-TERT
From the text: as §3, §1, §2, §4

[3] = BJ-TERT/LT/ST/Ras^V12 cells, 16-point two-fold dilution, two days
[4] = BJ-TERT/LT/Ras^V12/ST cells, 16-point two-fold dilution, two days
[5] = BJ cells, 16-point two-fold dilution, two days
[6] = BJ-TERT/LT/ST cells, 16-point two-fold dilution, two days
[7] = BJ-TERT/LT/Ras^V12 cells, 16-point two-fold dilution, two days
[8] = BJ-TERT cells, 16-point two-fold dilution, two days

SMILES	IC50 [1, 3]	Tumor Selectivity [1]	IC50 [2, 4]	IC50 (BJ primary cells; [5])	IC50 (BJ-TERT/LT/ST cells; [6])	IC50 (BJ-TERT/LT/RAS^V12 cells; [7])	IC50 (BJ-TERT cells; [8])	IC50 [2]	IC50 (BJ primary cells; BJ)	IC50 (BJ-TERT/LT/ST cells)	IC50 (BJ-TERT/LT/RAS^V12 cells)	IC50 (BJ-TERT cells)	IC50 [1]
CCOc1ccccc1-n1c(C(C)N2CCN(C(=O)COc3ccc(Cl)cc3)CC2)nc2ccccc2c1=O (centres unmarked) [Erastin]	1.25 µg/mL (≈ 2.28 µM)	>8	1.25 µg/mL (≈ 2.28 µM)	> 5 µg/mL	> 5 µg/mL	> 5 µg/mL	> 5 µg/mL						
COc1cccc2c1C(=O)c1c(O)c3c(c(O)c1C2=O)C[C@@](O)(C(C)=O)C[C@@H]3O[C@H]1C[C@H](N)[C@H](O)[C@H](C)O1 [Daunorubicin]	0.312 µg/mL (≈ 0.591 µM)	16						0.625 µg/mL (≈ 1.18 µM)	5 µg/mL (≈ 9.48 µM)	0.312 µg/mL (≈ 0.591 µM)	1.25 µg/mL (≈ 2.37 µM)	1.25 µg/mL (≈ 2.37 µM)	
COc1ccc(C[C@H]2C(=O)N[C@@H](C)C(=O)N(C)[C@@H]3C(=O)N(C)[C@@H](Cc4ccc(O)c(c4)Oc4ccc(cc4)[C@@H]3O)C(=O)N[C@H](C)C(=O)N[C@@H](C)C(=O)N2C)cc1 [Bouvardin]	0.078 µg/mL (≈ 0.101 µM)	4						0.0195 µg/mL (≈ 0.0252 µM)	0.312 µg/mL (≈ 0.404 µM)	0.0195 µg/mL (≈ 0.0252 µM)	0.078 µg/mL (≈ 0.101 µM)	0.078 µg/mL (≈ 0.101 µM)	
O=C1c2c(O)ccc(O)c2C(=O)c2c(NCCNCCO)ccc(NCCNCCO)c21 [Mitoxantrone]	0.312 µg/mL (≈ 0.702 µM)	18	0.312 µg/mL (≈ 0.702 µM)	5 µg/mL (≈ 11.2 µM)	0.312 µg/mL (≈ 0.702 µM)	1.25 µg/mL (≈ 2.81 µM)	1.25 µg/mL (≈ 2.81 µM)						
CC[C@@]1(O)C(=O)OCc2c1cc1n(c2=O)Cc2cc3ccccc3nc2-1 [Camptothecin]	0.0195 µg/mL (≈ 0.056 µM)	>512	0.0195 µg/mL (≈ 0.056 µM)	> 5 µg/mL	1.25 µg/mL (≈ 3.59 µM)	1.25 µg/mL (≈ 3.59 µM)	> 5 µg/mL						
COc1cccc2c1C(=O)c1c(O)c3c(c(O)c1C2=O)C[C@@](O)(C(=O)CO)C[C@@H]3O[C@H]1C[C@H](N)[C@H](O)[C@H](C)O1 [Doxorubicin]	1.25 µg/mL (≈ 2.3 µM)	>8	1.25 µg/mL (≈ 2.3 µM)	> 5 µg/mL	0.312 µg/mL (≈ 0.574 µM)	1.25 µg/mL (≈ 2.3 µM)	1.25 µg/mL (≈ 2.3 µM)						
NC(=O)c1cn([C@@H]2O[C@H](CO)[C@@H](O)[C@H]2O)c2ncnc(N)c12 [Sangivamycin]	0.078 µg/mL (≈ 0.252 µM)	4						0.078 µg/mL (≈ 0.252 µM)	0.312 µg/mL (≈ 1.01 µM)	0.195 µg/mL (≈ 0.63 µM)	0.078 µg/mL (≈ 0.252 µM)	0.039 µg/mL (≈ 0.126 µM)	
CS[C@H]1SC[C@H]2C(=O)N(C)[C@@H](C(C)C)C(=O)OC[C@@H](NC(=O)c3cnc4ccccc4n3)C(=O)N[C@@H](C)C(=O)N(C)[C@@H]1C(=O)N(C)[C@@H](C(C)C)C(=O)OC[C@@H](NC(=O)c1cnc3ccccc3n1)C(=O)N[C@@H](C)C(=O)N2C [Echinomycin]		>8333						0.0012 µg/mL (≈ 0.00109 µM)	> 5 µg/mL	0.0048 µg/mL (≈ 0.00436 µM)	0.0048 µg/mL (≈ 0.00436 µM)	0.312 µg/mL (≈ 0.283 µM)	0.0012 µg/mL (≈ 0.00109 µM)
